The values that follow come from publication PMC5248581 (PeerJ, 2017).

One series has as its target T1, rat recombinant myc-B2R (Rattus norvegicus, UniProt P25023).
T1 construct: expressed in transfected cells
T1 sequence (P25023 1-396): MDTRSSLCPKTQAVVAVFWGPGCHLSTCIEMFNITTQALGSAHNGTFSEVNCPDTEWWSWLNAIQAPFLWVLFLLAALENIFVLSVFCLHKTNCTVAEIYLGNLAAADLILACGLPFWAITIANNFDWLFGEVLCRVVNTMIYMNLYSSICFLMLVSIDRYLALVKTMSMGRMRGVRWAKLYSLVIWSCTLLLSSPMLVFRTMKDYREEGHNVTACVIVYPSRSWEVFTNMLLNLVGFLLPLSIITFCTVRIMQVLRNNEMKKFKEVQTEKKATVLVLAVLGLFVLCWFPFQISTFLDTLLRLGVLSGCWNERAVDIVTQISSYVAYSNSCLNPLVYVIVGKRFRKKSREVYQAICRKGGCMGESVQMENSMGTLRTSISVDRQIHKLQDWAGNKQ
Description: [3H]BK binding competition, rat myc-B2R. As to conditions: 3 nM [3H]BK, 0 °C, intact HEK 293a cells, peptidase inhibitors (captopril, PMSF); [95% C.L.]. The method, then:
(§1) The construction of myc-tagged B2R expression vectors containing the human and rat receptor sequence has been recently reported, as well as the derivation of HEK 293a cell lines that stably express each one of these constructions ([Charest-Morin et al., 2015]). The HEK 293a cell line was originally obtained from Sigma-Aldrich. Affinity of N-terminally extended kinins for the B2R was evaluated using a radioligand binding competition assay performed at 0 °C in the presence of peptidase inhibitors that included captopril and PMSF ([Houle et al., 2000]).
(§2) Results are presented as means ± s.e.m.

In series [1] the target is T2, recombinant human myc-B2R (Homo sapiens, UniProt P30411).
T2 construct: expressed in transfected cells
T2 sequence (P30411 1-391): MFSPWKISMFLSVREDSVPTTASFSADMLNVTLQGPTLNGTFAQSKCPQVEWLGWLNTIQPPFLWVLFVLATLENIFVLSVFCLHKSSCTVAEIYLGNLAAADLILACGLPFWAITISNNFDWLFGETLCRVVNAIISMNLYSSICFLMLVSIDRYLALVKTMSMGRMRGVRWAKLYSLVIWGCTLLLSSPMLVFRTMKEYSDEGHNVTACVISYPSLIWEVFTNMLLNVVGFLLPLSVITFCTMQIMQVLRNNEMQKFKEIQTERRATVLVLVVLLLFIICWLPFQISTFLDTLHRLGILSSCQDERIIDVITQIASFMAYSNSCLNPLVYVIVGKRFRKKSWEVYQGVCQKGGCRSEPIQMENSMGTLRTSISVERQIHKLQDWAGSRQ
Briefly: [3H]BK binding competition, human myc-B2R. To be noted: for pIC50: 3 nM [3H]BK, 0 °C, intact HEK 293a cells, peptidase inhibitors (captopril, PMSF), [95% C.L.]. How it is done: as §1, §2

The target of series [2] is T3, human isolated umbilical vein (BK B2R; histamine H1R) (Homo sapiens, UniProt P30411).
T3 sequence (P30411 1-391): T2 sequence (P30411 1-391)
As to conditions: for pEC50: read-out: Human umbilical vein EC50, contraction, cumulative, [95% C.L.]. An excerpt: The institutional research ethics board (CHU de Québec) approved the anonymous use of human umbilical cord segments obtained after elective cesarean section deliveries (file number: 2012-323). Informed written consent was obtained from mothers.
Results are presented as means ± s.e.m. Radioligand binding data were fitted by nonlinear regression to a one-site competition equation using a least-square method (Prism 5.0; GraphPad Software Inc., San Diego, CA, USA) and IC50 values calculated from this procedure. The same computer program was used to draw concentration-effect curves (least square fitting of sigmoidal dose–response equation with variable slope) and to derive contractile EC50 values. Data describing baseline values of heart rate and mean arterial blood pressure and hypotensive responses to peptides in anesthetized rats were assessed by using one-way analysis of variance (ANOVA) followed by the Dunnett’s test (repeated comparison with a common control). The effects of drugs on the hypotensive responses to each dose of MK were assessed by using ANOVA followed by the Dunnett’s test.

Series [3] is described as follows: Plasma level after injection. As to conditions: after injection at the highest tested dose in vivo. More on the design: species or system rat.
Series [4] in a line: LC-MS of MK incubated with human umbilical vein ring. The class given is in vitro ADME. As to conditions: MK (100 fmol analysed), 37 °C, 5 or 15 min. How it is done:
Synthetic MK (1 µM) was submitted to digestion in 2 ml of sterile-filtered Krebs solution in the presence of a freshly prepared ring of human umbilical vein (wet weight 25–37 mg). The tubes containing these materials were incubated at 37 °C for 5 or 15 min; the tissues were then removed and five volumes of cold ethanol (10 ml) were added to each tube. The tubes were incubated for 1 h on ice, centrifuged at 10,000 g to remove precipitated proteins and the kinin-containing supernatants were collected (procedure previously validated, [Raymond et al., 1995]). The supernatants were then completely evaporated to dryness in a Speedvac system and reconstituted in a small volume of water. Peptides were desalted on stage tip (C18), vacuum dried and then resuspended into 0.1% formic acid. One hundred fmol of each sample (starting MK quantity) was analyzed by mass spectrometry.
Mass spectrometry: peptide samples were separated by online reversed-phase (RP) nanoscale capillary liquid chromatography (nanoLC) and analyzed by electrospray mass spectrometry (ES MS/MS). The experiments were performed with a Ekspert NanoLC425 (Eksigent) coupled to a 5600+ mass spectrometer (AB Sciex, Framingham, MA, USA) equipped with a nanoelectrospray ion source. Peptide separation took place on a picofrit column (Reprosil 3u, 120A C18, 15 cm × 0.075 mm internal diameter). Peptides were eluted with a linear gradient from 5–35% solvent B (acetonitrile, 0.1% formic acid) in 35 min, at 300 nL/min. Mass spectra were acquired using a data dependent acquisition mode using Analyst software version 1.7. […] Dynamic exclusion was set for a period of 3 s and a tolerance of 100 ppm
Database searching: MGF peak list files were created using Protein Pilot version 5.0 software (Sciex) utilizing the Paragon and Progroup algorithms. MGF sample files were then analyzed using Mascot (Matrix Science, London, UK; version 2.5.1).
Mascot was set up to search the MK sequence assuming that the digestion enzyme was non-specific. Mascot was searched with a fragment ion mass tolerance of 0.100 Da and a parent ion tolerance of 0.100 Da. Deamidation of asparagine and glutamine and oxidation of methionine were specified in Mascot as variable modifications. Scaffold (version Scaffold_4.7.1; Proteome Software Inc., Portland, OR, USA) was used to validate MS/MS based peptide and protein identifications.
Data processing: Peak View 1.2.0.1 (Sciex) was used to extract the specific precursor masses and calculate the area under the curve. Extracted ion chromatoram (XIC) were generated from the TOF MS using a peak width of 0.05.

In the next series the test system is human BK B1 receptor. As to conditions: ref Charest-Morin & Marceau, 2016; cited from earlier work. An excerpt: MRGPRX2 has been recently described as a promiscuous receptor for cationic polymers and drugs that produce direct mast cell degranulation ([McNeil et al., 2015]). […] The contractile effect of MK on the human umbilical vein and ...
A further series relates to rat mast cells. To be noted: read-out: histamine release EC50; ref Devillier et al., 1985; cited from earlier work. An excerpt:
MK, encoded by two genes as five identical and cleavable amino acid sequences ([Chen et al., 2003]), is presumably a dissuasive toxin expressed in the skin of the toad Bombina maxima. Several such BK-related peptides of amphibian origin are believed to have co-evolved with the kinin receptors of the predatory species such as birds and snakes ([Xi et al., 2015]).

Series [5] deals with T3, human isolated umbilical vein (BK B2R; histamine H1R). As to conditions: ref Gera et al., 2011; Charest-Morin et al., 2014; cited from earlier work. An excerpt:
The isolated umbilical vein has a low intrinsic sensitivity to endothelium-dependent vasodilation owing to its >20 layers of B2R-expressing smooth muscle cells ([Koumbadinga et al., 2010]; [Jean et al., 2016b]).

pEC50, pIC50: −log10 of the molar value. Residues, ends and D or L forms follow the SMILES beside them.

In general, pIC50 refers to −log10 of the IC50, conventionally taken in molar units. For `NC(N)=NCCC[C@H](NC(=O)[C@H](Cc1ccccc1)NC(=O)[C@@H]1CCCN1C(=O)[C@H](CO)NC(=O)[C@H](Cc1ccccc1)NC(=O)CNC(=O)[C@@H]1CCCN1C(=O)[C@@H]1CCCN1C(=O)[C@@H](N)CCCN=C(N)N)C(=O)O` [BK, bradykinin] (H-RPPGFSPFR-OH), the pIC50 at rat recombinant myc-B2R is 7.72.

Usually pEC50 stands for −log10 of the EC50, conventionally taken in molar units. As to `CC[C@H](C)[C@H](NC(=O)[C@H](CCCCN)NC(=O)[C@@H]1CCCN1C(=O)[C@H](CC(C)C)NC(=O)[C@@H](N)CC(=O)O)C(=O)N[C@@H](CC(N)=O)C(=O)N[C@@H](CCCNC(=N)N)C(=O)N[C@@H](CCCCN)C(=O)NCC(=O)N1CCC[C@H]1C(=O)N[C@@H](CCCNC(=N)N)C(=O)N1CCC[C@H]1C(=O)N1CCC[C@H]1C(=O)NCC(=O)N[C@@H](Cc1ccccc1)C(=O)N[C@@H](CO)C(=O)N1CCC[C@H]1C(=O)N[C@@H](Cc1ccccc1)C(=O)N[C@@H](CCCNC(=N)N)C(=O)O` [MK, maximakinin] (H-DLPKINRKGPRPPGFSPFR-OH), the negative logarithm of the IC50 (pIC50) in series [1] was 5.12; on rat recombinant myc-B2R it was 6.92. Besides, in series [2], the pEC50 was 6.84. Further, in series [3], the “plasma concentration upper limit” value is recorded as at most 100 nM. Moreover, in series [4], the “consumption of MK” value was “consumed during the reaction”.

On to `CC[C@H](C)[C@H](NC(=O)[C@H](CCCCN)NC(=O)[C@@H]1CCCN1C(=O)[C@H](CC(C)C)NC(=O)[C@@H](N)CC(=O)O)C(=O)N[C@@H](CC(N)=O)C(=O)N[C@@H](CCCNC(=N)N)C(=O)N[C@@H](CCCCN)C(=O)NCC(=O)N1CCC[C@H]1C(=O)N[C@@H](CCCNC(=N)N)C(=O)N1CCC[C@H]1C(=O)N1CCC[C@H]1C(=O)NCC(=O)N[C@@H](Cc1ccccc1)C(=O)N[C@@H](CO)C(=O)N1CCC[C@H]1C(=O)N[C@@H](Cc1ccccc1)C(=O)O` [MK-des-Arg] (H-DLPKINRKGPRPPGFSPF-OH; N-terminus and C-terminus assumed), for which the “B1R affinity” value in the series on human BK B1 receptor is “very low affinity”. Further, the negative logarithm of the IC50 (pIC50) in series [1] is under 5.00. In addition, the “displacement of [3H]BK binding / affinity” value in series [1] (human myc-B2R) is “did not significantly displace [^3H]BK binding”. In series [2], the “contractile effect” value is reported as “negligible effects” and the pEC50 was under 5.00.

Turning to Lys-BK, the negative-log EC50 (pEC50) in the series with rat mast cells was 5.11.

As for “Met-Lys-BK-Ser-Ser [BK prodrug prolonged at the C-terminus]”, in series [5], the “apparent potency in presence of specific peptidase inhibitors” value was “decreased apparent potency”.
